Test: Functional Dkk1-LRP5-TCF-Luciferase Assay in U2OS Cells (table columns: A=MAX FOLD Induction/DMSO CONTROL; B=fold induction @ 2.0 uM; C=fold induction @ 20.0 uM)
Format: cell-based, Human
Conditions: Homo sapiens, U2OS; for fold induction at 2 µM: 2.0 uM compound; for fold induction at 20 µM: 20.0 uM compound
In short: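 U2OS cells co-transfected with 16×TCF-TK-firefly luciferase, TK-Renilla control, Wnt3a and Dkk1, then frozen; thawed cells (~5,000/well, ~5% FBS, phenol red-free RPMI) incubated ~20 h at 37° C. with compound (0.25% DMSO). Firefly luminescence (Bright-Glo) normalized to DMSO mean as fold induction.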

| SMILES | fold induction at 2 µM | fold induction at 20 µM |
| --- | --- | --- |
| c1ccc2cc(-c3ccnc4c3nc(-c3ccc5c(c3)OCO5)n4C3CCNCC3)ccc2c1 [2-(1,3-benzodioxol-5-yl)-7-(2-naphthyl)-3-piperidin-4-yl-3H-imidazo[4,5-b]pyridine] | 1.36 |  |
| c1ccc2cc(-c3ccnc4c3nc(C3CCCCC3)n4C3CCNCC3)ccc2c1 [2-cyclohexyl-7-(2-naphthyl)-3-piperidin-4-yl-3H-imidazo[4,5-b]pyridine] | 1.88 |  |
| CC(=O)n1cc(-c2nc3c(-c4ccc5ccccc5c4)ccnc3n2C2CCNCC2)c2ccccc21 [2-(1-acetyl-1H-indol-3-yl)-7-(2-naphthyl)-3-piperidin-4-yl-3H-imidazo[4,5-b]pyridine] | 1.48 |  |
| c1ccc(-c2nc3cc(-c4ccc5ccccc5c4)cnc3n2C2CCNCC2)nc1 [6-(2-naphthyl)-3-piperidin-4-yl-2-pyridin-2-yl-3H-imidazo[4,5-b]pyridine] | 1.6 | 0.005 |
| FC(F)(F)c1ccc(C(F)(F)F)c(-c2nc3c(-c4ccc5ccccc5c4)ccnc3n2C2CCNCC2)c1 [2-[2,5-bis(trifluoromethyl)phenyl]-7-(2-naphthyl)-3-piperidin-4-yl-3H-imidazo[4,5-b]pyridine] | 1.45 |  |
| O=C(N1CCOCC1)N1CCC(n2cnc3c(-c4ccc5ccccc5c4)ccnc32)CC1 [3-[1-(morpholin-4-ylcarbonyl)piperidin-4-yl]-7-(2-naphthyl)-3H-imidazo[4,5-b]pyridine] | 1.08 | 1.25 |
| c1ccc2cc(-c3ccnc4c3nc(-c3ccsc3)n4C3CCNCC3)ccc2c1 [7-(2-naphthyl)-3-piperidin-4-yl-2-(3-thienyl)-3H-imidazo[4,5-b]pyridine] | 1.17 | 0.01 |
| Fc1cccc(-c2nc3c(-c4ccc5ccccc5c4)ccnc3n2C2CCNCC2)c1 [2-(3-fluorophenyl)-7-(2-naphthyl)-3-piperidin-4-yl-3H-imidazo[4,5-b]pyridine] | 1.55 |  |
| Clc1ccccc1-c1nc2c(-c3ccc4ccccc4c3)ccnc2n1C1CCNCC1 [2-(2-chlorophenyl)-7-(2-naphthyl)-3-piperidin-4-yl-3H-imidazo[4,5-b]pyridine] | 1.36 |  |
| FC(F)(F)c1ccc(-c2nc3c(-c4ccc5ccccc5c4)ccnc3n2C2CCNCC2)cc1 [7-(2-naphthyl)-3-piperidin-4-yl-2-[4-(trifluoromethyl)phenyl]-3H-imidazo[4,5-b]pyridine] | 1.28 |  |
| O=[N+]([O-])c1ccc(O)cc1-c1nc2c(-c3ccc4ccccc4c3)ccnc2n1C1CCNCC1 [3-[7-(2-naphthyl)-3-piperidin-4-yl-3H-imidazo[4,5-b]pyridin-2-yl]-4-nitrophenol] | 1.4 | 0.98 |
| O=[N+]([O-])c1ccc(-c2nc3c(-c4ccc5ccccc5c4)ccnc3n2C2CCNCC2)cc1 [7-(2-naphthyl)-2-(4-nitrophenyl)-3-piperidin-4-yl-3H-imidazo[4,5-b]pyridine] | 1.42 |  |
| COC(=O)N1CCC(n2cnc3c(-c4ccc5ccccc5c4)ccnc32)CC1 [methyl 4-[7-(2-naphthyl)-3H-imidazo[4,5-b]pyridin-3-yl]piperidine-1-carboxylate] | 1.08 | 1.02 |
| FC(F)(F)Oc1ccccc1-c1nc2c(-c3ccc4ccccc4c3)ccnc2n1C1CCNCC1 [7-(2-naphthyl)-3-piperidin-4-yl-2-[2-(trifluoromethoxy)phenyl]-3H-imidazo[4,5-b]pyridine] | 1.88 |  |
| c1ccc2cc(-c3ccnc4c3nc(-c3ccc5ccccc5c3)n4C3CCNCC3)ccc2c1 [2,7-di-2-naphthyl-3-piperidin-4-yl-3H-imidazo[4,5-b]pyridine] | 1.02 |  |
| COc1ncccc1-c1nc2c(-c3ccc4ccccc4c3)ccnc2n1C1CCNCC1 [2-(2-methoxypyridin-3-yl)-7-(2-naphthyl)-3-piperidin-4-yl-3H-imidazo[4,5-b]pyridine] | 1.5 |  |
| Clc1ccc(-c2nc3cc(-c4ccc5ccccc5c4)cnc3n2C2CCNCC2)c(Cl)c1 [2-(2,4-dichlorophenyl)-6-(2-naphthyl)-3-piperidin-4-yl-3H-imidazo[4,5-b]pyridine] | 1.04 |  |
| [O-][n+]1ccc(-c2nc3c(-c4ccc5ccccc5c4)ccnc3n2C2CCNCC2)cc1 [7-(2-naphthyl)-2-(1-oxidopyridin-4-yl)-3-piperidin-4-yl-3H-imidazo[4,5-b]pyridine] | 1.45 | 0.06 |
| CC(C)Cc1nc2cc(-c3ccc4ccccc4c3)cnc2n1C1CCNCC1 [2-isobutyl-6-(2-naphthyl)-3-piperidin-4-yl-3H-imidazo[4,5-b]pyridine] | 1.13 |  |
| Cn1cc(-c2nc3c(-c4ccc5ccccc5c4)ccnc3n2C2CCNCC2)c2ccccc21 [2-(1-methyl-1H-indol-3-yl)-7-(2-naphthyl)-3-piperidin-4-yl-3H-imidazo[4,5-b]pyridine] | 1.23 |  |
| CC(C)NC(=O)N1CCC(n2cnc3c(-c4ccc5ccccc5c4)ccnc32)CC1 [N-isopropyl-4-[7-(2-naphthyl)-3H-imidazo[4,5-b]pyridin-3-yl]piperidine-1-carboxamide] | 1.2 | 0.84 |

| SMILES | fold induction at 2 µM | fold induction at 20 µM |
| --- | --- | --- |
| c1ccc2cc(-c3cnc4c(c3)nc(-c3ccnc5ccccc35)n4C3CCNCC3)ccc2c1 [4-[6-(2-naphthyl)-3-piperidin-4-yl-3H-imidazo[4,5-b]pyridin-2-yl]quinoline] | 1.81 |  |
| COc1ccccc1-c1nc2c(-c3ccc4ccccc4c3)ccnc2n1C1CCNCC1 [2-(2-methoxyphenyl)-7-(2-naphthyl)-3-piperidin-4-yl-3H-imidazo[4,5-b]pyridine] | 1.99 |  |
| FC(F)(F)c1cccc(-c2nc3c(-c4ccc5ccccc5c4)ccnc3n2C2CCNCC2)c1 [7-(2-naphthyl)-3-piperidin-4-yl-2-[3-(trifluoromethyl)phenyl]-3H-imidazo[4,5-b]pyridine] | 1.54 |  |
| c1ccc2cc(-c3cnc4c(c3)nc(-c3ccc5occc5c3)n4C3CCNCC3)ccc2c1 [2-(1-benzofuran-5-yl)-6-(2-naphthyl)-3-piperidin-4-yl-3H-imidazo[4,5-b]pyridine] | 0.98 |  |
| O=[N+]([O-])c1ccccc1-c1nc2c(-c3ccc4ccccc4c3)ccnc2n1C1CCNCC1 [7-(2-naphthyl)-2-(2-nitrophenyl)-3-piperidin-4-yl-3H-imidazo[4,5-b]pyridine] | 1.14 |  |
| Cc1nc[nH]c1-c1nc2c(-c3ccc4ccccc4c3)ccnc2n1C1CCNCC1 [2-(4-methyl-1H-imidazol-5-yl)-7-(2-naphthyl)-3-piperidin-4-yl-3H-imidazo[4,5-b]pyridine] | 1.31 |  |
| O=[N+]([O-])c1cc(-c2nc3cc(-c4ccc5ccccc5c4)cnc3n2C2CCNCC2)ccc1N1CCOCC1 [2-(4-morpholin-4-yl-3-nitrophenyl)-6-(2-naphthyl)-3-piperidin-4-yl-3H-imidazo[4,5-b]pyridine] | 1.01 |  |
| O=c1[nH]c2c(-c3ccc4ccccc4c3)ccnc2n1C1CCNCC1 [7-(2-naphthyl)-3-piperidin-4-yl-1,3-dihydro-2H-imidazo[4,5-b]pyridin-2-one] | 1.29 | 0.04 |
| c1cncc(-c2nc3c(-c4ccc5ccccc5c4)ccnc3n2C2CCNCC2)c1 [7-(2-naphthyl)-3-piperidin-4-yl-2-pyridin-3-yl-3H-imidazo[4,5-b]pyridine] | 1.21 |  |
| CCNC(=O)N1CCC(n2cnc3c(-c4ccc5ccccc5c4)ccnc32)CC1 [N-ethyl-4-[7-(2-naphthyl)-3H-imidazo[4,5-b]pyridin-3-yl]piperidine-1-carboxamide] | 1.52 | 1.29 |
| FC(F)(F)c1cccc(Oc2cccc(-c3nc4c(-c5ccc6ccccc6c5)ccnc4n3C3CCNCC3)c2)c1 [7-(2-naphthyl)-3-piperidin-4-yl-2-{3-[3-(trifluoromethyl)phenoxy]phenyl}-3H-imidazo[4,5-b]pyridine] | 1.29 |  |
| Fc1ccccc1-c1nc2c(-c3ccc4ccccc4c3)ccnc2n1C1CCNCC1 [2-(2-fluorophenyl)-7-(2-naphthyl)-3-piperidin-4-yl-3H-imidazo[4,5-b]pyridine] | 1.29 |  |
| COc1ccc2[nH]cc(-c3nc4c(-c5ccc6ccccc6c5)ccnc4n3C3CCNCC3)c2c1 [2-(5-methoxy-1H-indol-3-yl)-7-(2-naphthyl)-3-piperidin-4-yl-3H-imidazo[4,5-b]pyridine] | 1.2 |  |
| CC(C)c1ccc(-c2nc3cc(-c4ccc5ccccc5c4)cnc3n2C2CCNCC2)cc1 [2-(4-isopropylphenyl)-6-(2-naphthyl)-3-piperidin-4-yl-3H-imidazo[4,5-b]pyridine] | 1.14 |  |
| CCn1cnc(-c2nc3c(-c4ccc5ccccc5c4)ccnc3n2C2CCNCC2)c1C [2-(1-ethyl-5-methyl-1H-imidazol-4-yl)-7-(2-naphthyl)-3-piperidin-4-yl-3H-imidazo[4,5-b]pyridine] | 1.88 |  |
| c1csc(-c2nc3cc(-c4ccc5ccccc5c4)cnc3n2C2CCNCC2)c1 [6-(2-naphthyl)-3-piperidin-4-yl-2-(2-thienyl)-3H-imidazo[4,5-b]pyridine] | 1.04 |  |
| Cn1c(-c2nc3cc(-c4ccc5ccccc5c4)cnc3n2C2CCNCC2)cc2ccccc21 [2-(1-methyl-1H-indol-2-yl)-6-(2-naphthyl)-3-piperidin-4-yl-3H-imidazo[4,5-b]pyridine] | 1.05 |  |
| Cn1c(=O)n(C2CCNCC2)c2nccc(-c3ccc4ccccc4c3)c21 [1-methyl-7-(2-naphthyl)-3-piperidin-4-yl-1,3-dihydro-2H-imidazo[4,5-b]pyridin-2-one] | 1.07 |  |
| c1ccc2cc(-c3ccnc4c3nc(-c3cccc5cccnc35)n4C3CCNCC3)ccc2c1 [8-[7-(2-naphthyl)-3-piperidin-4-yl-3H-imidazo[4,5-b]pyridin-2-yl]quinoline] |  | 1.01 |
| Brc1ccccc1-c1nc2c(-c3ccc4ccccc4c3)ccnc2n1C1CCNCC1 [2-(2-bromophenyl)-7-(2-naphthyl)-3-piperidin-4-yl-3H-imidazo[4,5-b]pyridine] | 1.6 |  |

— patent publication US20090069319A1, “IMIDAZOPYRIDINE ANALOGS AND THEIR USE AS AGONISTS OF THE WNT-BETA-CATENIN CELLULAR MESSAGING SYSTEM” (Wyeth, priority 2007, published 2009)
